This note sets out measurements from patent publication US20220348549A1 (Hoffmann-La Roche Inc., priority 2019, published 2022).

SMILES strings stand for the structures.

The assay deals with HBV cccDNA (HBeAg level in HepDES19 cells). Nature of the assay: Engineered HepDES19 primary screen assay (HBeAg ELISA as surrogate marker for cccDNA). The format is cell-based. The settings on record: Hepatitis B virus, HepDES19, 120 h. From the text:
The assay was employed to screen for novel HBV cccDNA inhibitors. HepDES19 is a HBV cccDNA-producing cell line. In this cell line, HBeAg in the cell culture supernatant as surrogate marker, as HBeAg production depends on cccDNA level and activity. HepDES19 is an engineered cell line which contains a 1.1 unit length HBV genome, and pgRNA transcription from the transgene is controlled by Tetracycline (Tet). In the absence of Tet, pgRNA transcription will be induced, but HBV e antigen (HBeAg) could not be produced from this pgRNA due to very short leader sequence before the HBeAg start codon and the start codon is disrupted. Only after cccDNA is formed, the missing leader sequence and start codon mutation would be restored from the 3′-terminal redundancy of pgRNA, and then HBeAg could be synthesized. Therefore, HBeAg could be used as a surrogate marker for cccDNA (Zhou, T. et al., Antiviral Res. (2006), 72(2), 116-124; Guo, H. et al., J. Virol. (2007), 81(22), 12472-12484).
HepDES19 cells were seeded at 2×10^6 cells per T150 flask and cultured with the culture medium (Dulbecco's Modified Eagle Medium: Nutrient Mixture F-12 [DMEM-F12, Gibco Cat. 11320-82], 10% Fetal Bovine Serum [FBS, Clontech Cat. 631101], 0.1 mM Non-Essential Amino Acids Solution [NEAA, Gibco Cat. 11140-050], 50 μg/mL Penicillin-Streptomycin [PS, Invitrogen Cat. 15140-163], 500 μg/mL Geneticin [G418, Invitrogen Cat. 10131-027]) containing 3 μg/mL Tet (Sigma, Cat. 87128) for 5 days. Cells were then seeded at 4×10^6 cells per T150 in the same culture medium as described above in the absence of Tet for 8 days. Cells were then harvested and frozen at density of 2×10^6 cells per mL. For compound testing, the frozen cells were thawed and seeded into 96-well plates at a density of 6×10^4 cells per well. At 24 hrs after seeding, half log serial dilutions of compounds made with Dimethyl sulfoxide (DMSO, Sigma, Cat. D2650) were further diluted with the same culture medium as described above before they were added to the cells to reach desired final compound concentrations and 1% DMSO concentration. Plates were then incubated at 37° C. for another 5 days before measurement of HBeAg level and cell viability. Intracellular HBeAg level were measured with enzyme-linked immunosorbent assay (ELISA) kit (Shanghai Kehua Diagnostic Medical Products Co., Ltd). Cell viability was assessed using Cell Counting Kit-8 (Donjindo, Cat. CK04-20). IC50 values were derived from the dose-response curve using 4 parameter logistic curve fit method.
The compounds of the present invention were tested for their capacity to inhibit extracellular HBeAg level as described herein.
Turning to `O=C(O)c1nc(-c2ccc(Br)cc2)nc2c(Cl)cccc12` [Example 37, 2-(4-Bromophenyl)-8-chloroquinazoline-4-carboxylic acid], the concentration for half-maximal inhibition (IC50) was 2240 nM. In turn, `Clc1cccc2cnc(-c3cccc(Br)c3)nc12` [Example 2, 2-(3-Bromophenyl)-8-chloroquinazoline] registered an IC50 of 360 nM. As for `Cc1nc(-c2ccc(OCCO[C@H]3C[C@@H](C(=O)O)C3)cc2)nc2c(Cl)cccc12` [Example 12, cis-3-[2-[4-(8-Chloro-4-methyl-quinazolin-2-yl)phenoxy]ethoxy]cyclobutanecarboxylic acid], the figure is 63 nM.

`OCCN(CCO)c1ccc(-c2ncc3cccc(Cl)c3n2)cn1` [Example 28, 2,2′-((5-(8-Chloroquinazolin-2-yl)pyridin-2-yl)azanediyl)diethanol] registered an IC50 of 300 nM. In the case of `COc1ccc(-c2nc(C(=O)NCCO)c3cccc(Cl)c3n2)cc1` [Example 35, 8-Chloro-N-(2-hydroxyethyl)-2-(4-methoxyphenyl)quinazoline-4-carboxamide], half-maximal inhibition (IC50) was put at 16100 nM. To `O=C(O)COCCOc1ccc(-c2ncc3cccc(Cl)c3n2)cn1` [Example 51, 2-[2-[[5-(8-Chloroquinazolin-2-yl)-2-pyridyl]oxy]ethoxy]acetic acid] belongs 4860 nM. For the compound `O=C(O)c1nc(-c2ccc(Br)cc2)nc2cc(C(F)(F)F)ccc12` [Example 43, 2-(4-Bromophenyl)-7-(trifluoromethyl)quinazoline-4-carboxylic acid], the midpoint of inhibition, the IC50, lay at 12900 nM. To `O=C(O)[C@H]1C[C@@H](OCCOc2ccc(-c3nc(O)c4cccc(Cl)c4n3)cn2)C1` [Example 54, cis-3-[2-[[5-(8-Chloro-4-hydroxy-quinazolin-2-yl)-2-pyridyl]oxy]ethoxy]cyclobutanecarboxylic acid] belongs 3420 nM; to `Clc1cccc2cnc(-c3ccc(Br)cc3)nc12` [Example 1, 2-(4-Bromophenyl)-8-chloroquinazoline], 100 nM; to `Cc1nc(-c2ccc(Cl)cc2)nc2c(Cl)cccc12` [Example 13, 8-Chloro-2-(4-chlorophenyl)-4-methylquinazoline], 1030 nM. As for `Cc1nc(-c2ccc(OCCOC3CC(C(=O)O)C3)cc2)nc2cc(C(F)(F)F)ccc12` (centres unmarked) [Example 15, 3-(2-(4-(4-Methyl-7-(trifluoromethyl)quinazolin-2-yl)phenoxy)ethoxy) cyclobutanecarboxylic acid], the figure is 60 nM; as for `CCOC(=O)c1nc(-c2ccc(Br)cc2)nc2c(Cl)cccc12` [Example 38, ethyl 2-(4-bromophenyl)-8-chloro-quinazoline-4-carboxylate], 1160 nM; as for `COc1nc(-c2ccc(OCCOC3CC(C(=O)O)C3)cc2)nc2c(Cl)cccc12` (centres unmarked) [Example 55, 3-(2-(4-(8-Chloro-4-methoxyquinazolin-2-yl)phenoxy)ethoxy)cyclobutanecarboxylic acid], 26 nM. In turn, `Cc1nc(-c2cccc(Br)c2)nc2cc(C(F)(F)F)c(Cl)cc12` [Example 4, 2-(3-Bromophenyl)-6-chloro-4-methyl-7-(trifluoromethyl)quinazoline] returned a half-maximal inhibitory concentration (IC50) of 3620 nM. `COC(=O)COCCOc1ccc(-c2nc(C)c3cccc(Cl)c3n2)cc1` [Example 10, Methyl 2-[2-[4-(8-chloro-4-methyl-quinazolin-2-yl)phenoxy]ethoxy]acetate] had a half-maximal inhibitory concentration (IC50) of 1040 nM. `CCOc1ccc(-c2nc(C(=O)O)c3cccc(Cl)c3n2)cn1` [Example 48, 8-Chloro-2-(6-ethoxy-3-pyridyl)quinazoline-4-carboxylic acid] returned an IC50 of 7570 nM. This IC50 is about 7.3-fold higher than that of the compound before. In turn, `O=C(O)c1nc(-c2cccc(Br)c2)nc2cc(C(F)(F)F)ccc12` [Example 31, 2-(3-Bromo-phenyl)-7-trifluoromethyl-quinazoline-4-carboxylic acid] yielded an IC50 of 17800 nM. On to `COCc1nc(-c2cccc(Br)c2)nc2cc(C(F)(F)F)ccc12` [Example 16, 2-(3-Bromophenyl)-4-(methoxymethyl)-7-(trifluoromethyl)quinazoline], for which the IC50 is 2390 nM. In turn, `Clc1cccc2cnc(-c3ccc(N4CCOCC4)nc3)nc12` [Example 27, 4-(5-(8-Chloroquinazolin-2-yl)pyridin-2-yl)morpholine] came in with an IC50 of 590 nM. To `Oc1ccc(-c2ncc3cccc(Cl)c3n2)cc1` [Example 5, 4-(8-Chloroquinazolin-2-yl)phenol] belongs 4350 nM.
